How the values were obtained:
[1] = target: T1, Adenosine receptor A3 (Homo sapiens, UniProt P0DMS8)
T1 sequence (P0DMS8 whole entry): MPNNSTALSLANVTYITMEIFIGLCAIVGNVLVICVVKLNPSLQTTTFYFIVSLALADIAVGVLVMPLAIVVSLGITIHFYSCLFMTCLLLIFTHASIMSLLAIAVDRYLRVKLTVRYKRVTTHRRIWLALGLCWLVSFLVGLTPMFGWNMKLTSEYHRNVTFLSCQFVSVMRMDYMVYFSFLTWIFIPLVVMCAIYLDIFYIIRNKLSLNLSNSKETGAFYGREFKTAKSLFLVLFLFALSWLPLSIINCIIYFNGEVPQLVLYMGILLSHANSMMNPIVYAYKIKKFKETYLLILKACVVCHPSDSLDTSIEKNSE

[2] = target: 5-hydroxytryptamine receptor 2B (Homo sapiens, UniProt P41595); type: functional, cell-based
5-hydroxytryptamine receptor 2B, sequence (P41595 whole entry): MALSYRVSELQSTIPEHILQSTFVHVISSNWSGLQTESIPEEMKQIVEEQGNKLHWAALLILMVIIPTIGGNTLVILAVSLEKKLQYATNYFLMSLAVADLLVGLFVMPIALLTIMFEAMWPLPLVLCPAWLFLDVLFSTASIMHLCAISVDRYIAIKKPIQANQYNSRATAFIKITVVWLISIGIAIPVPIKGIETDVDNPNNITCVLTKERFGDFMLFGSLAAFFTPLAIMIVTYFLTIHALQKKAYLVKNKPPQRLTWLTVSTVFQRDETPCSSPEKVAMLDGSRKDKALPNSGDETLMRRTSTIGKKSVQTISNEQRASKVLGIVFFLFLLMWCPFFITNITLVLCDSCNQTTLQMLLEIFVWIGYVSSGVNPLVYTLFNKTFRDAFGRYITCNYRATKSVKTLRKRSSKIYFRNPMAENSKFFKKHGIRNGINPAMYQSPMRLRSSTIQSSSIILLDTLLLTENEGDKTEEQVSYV

[3] = target: T2, Alpha-1A adrenergic receptor (Homo sapiens, UniProt P35348); type: functional, cell-based
T2 sequence (P35348 whole entry): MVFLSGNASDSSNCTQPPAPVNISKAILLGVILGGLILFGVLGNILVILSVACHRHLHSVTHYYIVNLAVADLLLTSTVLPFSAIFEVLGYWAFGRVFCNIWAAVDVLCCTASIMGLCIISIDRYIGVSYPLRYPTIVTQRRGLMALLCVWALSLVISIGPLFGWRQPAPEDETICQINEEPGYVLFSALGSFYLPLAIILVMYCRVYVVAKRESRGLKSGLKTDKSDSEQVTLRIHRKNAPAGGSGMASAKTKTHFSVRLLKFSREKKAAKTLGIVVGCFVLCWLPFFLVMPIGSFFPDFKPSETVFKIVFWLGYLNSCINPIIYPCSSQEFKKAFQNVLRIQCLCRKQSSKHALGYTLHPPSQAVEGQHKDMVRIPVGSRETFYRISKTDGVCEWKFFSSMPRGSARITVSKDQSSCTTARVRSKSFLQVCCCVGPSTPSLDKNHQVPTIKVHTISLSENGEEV

[4] = target: Prostaglandin G/H synthase 1 (Homo sapiens, UniProt P23219); type: functional
Prostaglandin G/H synthase 1, sequence (P23219 whole entry): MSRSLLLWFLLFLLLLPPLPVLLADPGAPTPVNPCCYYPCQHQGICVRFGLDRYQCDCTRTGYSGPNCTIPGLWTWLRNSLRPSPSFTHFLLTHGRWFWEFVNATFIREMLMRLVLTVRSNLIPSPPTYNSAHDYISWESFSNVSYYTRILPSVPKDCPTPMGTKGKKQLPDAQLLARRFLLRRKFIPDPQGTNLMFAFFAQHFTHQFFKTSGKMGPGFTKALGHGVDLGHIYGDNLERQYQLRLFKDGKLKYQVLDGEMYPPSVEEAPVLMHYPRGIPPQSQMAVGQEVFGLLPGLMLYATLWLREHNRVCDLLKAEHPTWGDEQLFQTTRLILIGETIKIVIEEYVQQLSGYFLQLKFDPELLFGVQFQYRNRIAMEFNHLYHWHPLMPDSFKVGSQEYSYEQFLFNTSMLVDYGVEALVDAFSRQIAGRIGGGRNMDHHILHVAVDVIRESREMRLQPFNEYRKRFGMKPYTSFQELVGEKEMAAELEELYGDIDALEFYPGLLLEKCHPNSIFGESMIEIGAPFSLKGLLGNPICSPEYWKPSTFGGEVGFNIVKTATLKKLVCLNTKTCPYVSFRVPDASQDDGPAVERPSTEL

[5] = target: Sodium-dependent dopamine transporter (Homo sapiens, UniProt Q01959)
Sodium-dependent dopamine transporter, sequence (Q01959 whole entry): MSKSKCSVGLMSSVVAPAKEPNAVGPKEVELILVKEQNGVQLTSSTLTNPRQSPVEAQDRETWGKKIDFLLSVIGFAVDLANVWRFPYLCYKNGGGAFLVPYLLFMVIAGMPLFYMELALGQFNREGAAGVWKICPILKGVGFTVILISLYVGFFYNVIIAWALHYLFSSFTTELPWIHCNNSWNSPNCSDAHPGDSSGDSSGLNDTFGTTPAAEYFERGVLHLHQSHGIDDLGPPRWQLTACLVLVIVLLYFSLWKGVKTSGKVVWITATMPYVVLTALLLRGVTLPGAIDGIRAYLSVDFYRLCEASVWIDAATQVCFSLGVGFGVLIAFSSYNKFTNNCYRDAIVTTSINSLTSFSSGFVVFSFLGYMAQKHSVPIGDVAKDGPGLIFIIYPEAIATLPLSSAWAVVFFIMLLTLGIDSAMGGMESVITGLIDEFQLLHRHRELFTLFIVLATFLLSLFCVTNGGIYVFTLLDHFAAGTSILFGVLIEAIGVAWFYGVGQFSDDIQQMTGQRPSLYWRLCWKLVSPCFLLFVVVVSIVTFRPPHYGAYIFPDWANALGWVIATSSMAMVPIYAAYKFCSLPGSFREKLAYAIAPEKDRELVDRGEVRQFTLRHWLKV

[6] = target: Prothrombin (Homo sapiens, UniProt P00734); type: functional
[7] = target: cGMP-inhibited 3',5'-cyclic phosphodiesterase 3A (Homo sapiens, UniProt Q14432); type: functional
cGMP-inhibited 3',5'-cyclic phosphodiesterase 3A, sequence (Q14432 whole entry): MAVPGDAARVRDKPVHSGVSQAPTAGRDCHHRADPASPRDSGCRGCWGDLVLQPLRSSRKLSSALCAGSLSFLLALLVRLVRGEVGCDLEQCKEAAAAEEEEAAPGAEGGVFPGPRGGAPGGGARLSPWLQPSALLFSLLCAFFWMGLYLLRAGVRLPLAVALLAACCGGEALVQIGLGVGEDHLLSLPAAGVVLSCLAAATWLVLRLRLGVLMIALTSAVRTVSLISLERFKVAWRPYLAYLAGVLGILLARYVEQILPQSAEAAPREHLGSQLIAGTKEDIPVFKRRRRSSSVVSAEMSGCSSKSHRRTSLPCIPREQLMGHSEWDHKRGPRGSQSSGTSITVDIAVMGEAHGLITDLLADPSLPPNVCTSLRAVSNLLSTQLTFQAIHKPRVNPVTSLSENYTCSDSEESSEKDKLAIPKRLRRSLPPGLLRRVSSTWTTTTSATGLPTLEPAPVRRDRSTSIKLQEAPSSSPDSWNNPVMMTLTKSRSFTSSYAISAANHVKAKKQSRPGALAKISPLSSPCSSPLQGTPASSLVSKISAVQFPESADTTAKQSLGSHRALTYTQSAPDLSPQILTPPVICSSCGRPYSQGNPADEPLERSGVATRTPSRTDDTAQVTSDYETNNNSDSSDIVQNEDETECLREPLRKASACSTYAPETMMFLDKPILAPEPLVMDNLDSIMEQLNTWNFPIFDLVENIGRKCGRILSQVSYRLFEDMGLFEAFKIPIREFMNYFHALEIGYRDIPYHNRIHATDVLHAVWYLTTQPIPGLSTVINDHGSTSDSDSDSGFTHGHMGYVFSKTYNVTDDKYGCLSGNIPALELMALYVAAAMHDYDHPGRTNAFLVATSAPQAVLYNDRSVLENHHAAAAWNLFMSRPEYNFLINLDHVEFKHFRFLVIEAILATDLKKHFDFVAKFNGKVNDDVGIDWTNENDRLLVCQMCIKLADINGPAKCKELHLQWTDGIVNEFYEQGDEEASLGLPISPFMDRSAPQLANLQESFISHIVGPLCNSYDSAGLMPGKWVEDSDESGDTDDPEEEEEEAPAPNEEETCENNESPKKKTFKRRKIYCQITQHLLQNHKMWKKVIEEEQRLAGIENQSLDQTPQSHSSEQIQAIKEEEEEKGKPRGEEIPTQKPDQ

[8] = target: T3, Amine oxidase [flavin-containing] A (Homo sapiens, UniProt P21397); type: functional
T3 sequence (P21397 whole entry): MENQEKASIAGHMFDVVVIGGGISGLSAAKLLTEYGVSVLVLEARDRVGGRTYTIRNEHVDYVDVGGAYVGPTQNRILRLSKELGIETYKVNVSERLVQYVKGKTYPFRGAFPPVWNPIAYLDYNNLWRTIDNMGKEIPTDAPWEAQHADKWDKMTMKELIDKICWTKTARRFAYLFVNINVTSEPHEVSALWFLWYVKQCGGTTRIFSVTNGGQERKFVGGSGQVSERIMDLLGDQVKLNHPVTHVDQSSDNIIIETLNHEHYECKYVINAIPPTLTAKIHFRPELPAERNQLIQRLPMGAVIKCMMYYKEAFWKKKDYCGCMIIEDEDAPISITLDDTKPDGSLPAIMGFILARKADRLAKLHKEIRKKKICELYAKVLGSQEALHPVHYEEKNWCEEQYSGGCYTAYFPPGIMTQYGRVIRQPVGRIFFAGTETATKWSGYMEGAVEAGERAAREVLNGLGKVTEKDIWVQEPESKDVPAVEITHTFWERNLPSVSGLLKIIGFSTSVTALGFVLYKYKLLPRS

[9] = target: Mu-type opioid receptor (Homo sapiens, UniProt P35372)
Mu-type opioid receptor, sequence (P35372 whole entry): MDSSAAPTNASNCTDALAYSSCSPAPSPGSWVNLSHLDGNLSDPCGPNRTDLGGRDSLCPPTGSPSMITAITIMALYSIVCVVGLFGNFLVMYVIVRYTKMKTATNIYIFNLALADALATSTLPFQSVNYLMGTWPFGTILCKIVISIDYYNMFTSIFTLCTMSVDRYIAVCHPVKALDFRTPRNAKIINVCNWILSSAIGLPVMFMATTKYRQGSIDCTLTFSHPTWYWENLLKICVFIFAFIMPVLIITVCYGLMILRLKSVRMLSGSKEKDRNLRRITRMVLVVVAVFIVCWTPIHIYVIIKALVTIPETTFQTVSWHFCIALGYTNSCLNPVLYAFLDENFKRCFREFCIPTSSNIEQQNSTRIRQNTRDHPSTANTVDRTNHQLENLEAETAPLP

[10] = target: T4, 5-hydroxytryptamine receptor 1A (Homo sapiens, UniProt P08908)
T4 sequence (P08908 whole entry): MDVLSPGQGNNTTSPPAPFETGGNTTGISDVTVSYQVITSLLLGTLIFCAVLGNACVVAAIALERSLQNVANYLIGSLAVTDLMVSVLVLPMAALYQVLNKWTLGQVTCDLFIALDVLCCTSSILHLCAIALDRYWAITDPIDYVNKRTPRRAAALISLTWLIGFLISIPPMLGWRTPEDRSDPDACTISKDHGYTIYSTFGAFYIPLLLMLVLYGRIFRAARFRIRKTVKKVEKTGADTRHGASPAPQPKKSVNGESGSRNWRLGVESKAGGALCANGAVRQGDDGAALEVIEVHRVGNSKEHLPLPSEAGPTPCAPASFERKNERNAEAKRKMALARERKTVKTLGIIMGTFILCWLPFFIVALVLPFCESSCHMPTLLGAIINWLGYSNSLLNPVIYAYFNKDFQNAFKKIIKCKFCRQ

[11] = target: Acetylcholinesterase (Homo sapiens, UniProt P22303); type: functional
[12] = target: T5, Thromboxane A2 receptor (Homo sapiens, UniProt P21731); type: functional, cell-based
T5 sequence (P21731 whole entry): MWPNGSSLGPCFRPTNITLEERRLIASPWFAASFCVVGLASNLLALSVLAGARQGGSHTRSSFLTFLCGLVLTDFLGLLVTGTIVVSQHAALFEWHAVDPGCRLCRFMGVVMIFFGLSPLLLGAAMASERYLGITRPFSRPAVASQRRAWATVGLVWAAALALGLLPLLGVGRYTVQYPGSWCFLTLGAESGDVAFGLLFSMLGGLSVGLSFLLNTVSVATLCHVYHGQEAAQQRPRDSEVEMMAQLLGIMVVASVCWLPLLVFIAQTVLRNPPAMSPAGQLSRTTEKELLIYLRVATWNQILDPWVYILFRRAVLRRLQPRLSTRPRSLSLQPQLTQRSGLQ

[13] = target: D(3) dopamine receptor (Homo sapiens, UniProt P35462)
D(3) dopamine receptor, sequence (P35462 whole entry): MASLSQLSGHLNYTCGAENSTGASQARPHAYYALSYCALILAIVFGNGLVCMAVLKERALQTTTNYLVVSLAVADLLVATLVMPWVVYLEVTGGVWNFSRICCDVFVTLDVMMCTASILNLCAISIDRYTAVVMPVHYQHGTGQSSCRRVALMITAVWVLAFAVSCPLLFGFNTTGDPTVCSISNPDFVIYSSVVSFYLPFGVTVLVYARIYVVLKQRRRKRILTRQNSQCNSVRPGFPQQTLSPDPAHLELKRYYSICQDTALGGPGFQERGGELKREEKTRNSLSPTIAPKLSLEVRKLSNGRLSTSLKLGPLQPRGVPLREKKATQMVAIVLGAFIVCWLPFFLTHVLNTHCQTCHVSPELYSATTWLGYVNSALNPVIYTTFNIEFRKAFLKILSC

[14] = target: Voltage-gated inwardly rectifying potassium channel KCNH2 (Homo sapiens, UniProt Q12809); type: functional; conditions: read-out: AC50
Voltage-gated inwardly rectifying potassium channel KCNH2, sequence (Q12809 whole entry): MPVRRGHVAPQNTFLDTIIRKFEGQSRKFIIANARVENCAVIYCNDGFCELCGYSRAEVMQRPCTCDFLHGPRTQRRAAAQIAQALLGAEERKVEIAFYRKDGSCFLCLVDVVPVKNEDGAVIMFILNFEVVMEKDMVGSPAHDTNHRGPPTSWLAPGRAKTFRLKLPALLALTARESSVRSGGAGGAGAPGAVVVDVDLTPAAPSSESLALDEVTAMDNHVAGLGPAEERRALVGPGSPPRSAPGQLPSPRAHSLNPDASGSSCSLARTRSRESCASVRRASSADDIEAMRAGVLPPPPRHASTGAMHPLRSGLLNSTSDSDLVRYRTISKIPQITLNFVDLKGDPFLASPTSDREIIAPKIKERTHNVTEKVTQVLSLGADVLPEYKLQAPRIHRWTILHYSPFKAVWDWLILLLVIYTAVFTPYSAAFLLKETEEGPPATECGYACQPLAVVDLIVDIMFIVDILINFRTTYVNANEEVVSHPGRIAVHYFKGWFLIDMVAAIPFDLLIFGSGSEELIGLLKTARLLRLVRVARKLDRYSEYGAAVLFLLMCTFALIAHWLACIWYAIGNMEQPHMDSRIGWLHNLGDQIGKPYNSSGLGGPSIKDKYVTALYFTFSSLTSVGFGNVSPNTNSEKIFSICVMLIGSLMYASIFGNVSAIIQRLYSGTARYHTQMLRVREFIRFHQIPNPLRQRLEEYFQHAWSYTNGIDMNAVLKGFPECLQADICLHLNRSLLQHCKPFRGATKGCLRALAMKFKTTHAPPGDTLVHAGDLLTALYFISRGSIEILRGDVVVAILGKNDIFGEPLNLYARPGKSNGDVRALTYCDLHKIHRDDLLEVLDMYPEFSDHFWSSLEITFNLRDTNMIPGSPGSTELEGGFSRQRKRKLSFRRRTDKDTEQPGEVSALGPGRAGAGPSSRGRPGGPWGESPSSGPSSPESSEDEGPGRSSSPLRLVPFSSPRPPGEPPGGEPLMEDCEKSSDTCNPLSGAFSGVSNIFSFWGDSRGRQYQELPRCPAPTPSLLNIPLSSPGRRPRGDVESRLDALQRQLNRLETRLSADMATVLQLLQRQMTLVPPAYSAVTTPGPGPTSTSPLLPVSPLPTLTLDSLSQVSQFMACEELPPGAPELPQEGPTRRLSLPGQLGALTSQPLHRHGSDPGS
Also: assay procedure not described here.

SMILES | AC50 [1] [µM] | AC50 [2] [µM] | AC50 [3] [µM] | AC50 [4] [µM] | AC50 [5] [µM] | AC50 [6] [µM] | AC50 [7] [µM] | AC50 [8] [µM] | AC50 [9] [µM] | AC50 [10] [µM] | AC50 [11] [µM] | AC50 [12] [µM] | AC50 [13] [µM] | AC50 [14] [µM]
N[C@@H](Cc1ccc(N(CCCl)CCCl)cc1)C(=O)O | > 30 | > 30 | > 30 | > 30 | 16.9 | > 30 | > 30 | > 30 | 20.6 | > 30 | 20 | > 30 | 24.8 | 4.8
CC1=C(/C=C/C(C)=C\C=C\C(C)=C\C(=O)O)C(C)(C)CCC1 [ALITRETINOIN] | > 30 | > 30 | > 30 | – | > 30 | > 30 | > 30 | > 30 | > 30 | > 30 | > 30 | > 30 | > 30 | –
N=C(N)NC(=O)c1nc(Cl)c(N)nc1N [AMILORIDE] | – | > 30 | > 30 | > 30 | > 30 | > 30 | > 30 | 5.24 | > 30 | 11.1 | > 30 | > 30 | > 30 | –
COc1ccc(-c2cc(=S)ss2)cc1 [ANETHOLTRITHION] | – | – | – | – | – | – | – | – | – | – | – | – | – | 23.3
OCc1ccccc1 [BENZYL ALCOHOL] | > 30 | > 30 | > 30 | > 30 | > 30 | > 30 | > 30 | > 30 | > 30 | > 30 | > 30 | > 30 | > 30 | > 30
C[C@H]1C[C@H]2[C@@H]3CCC4=CC(=O)C=C[C@]4(C)[C@@]3(F)[C@@H](O)C[C@]2(C)[C@@]1(O)C(=O)CO [BETAMETHASONE] | > 30 | > 30 | > 30 | > 30 | > 30 | > 30 | > 30 | > 30 | > 30 | > 30 | > 30 | > 30 | > 30 | > 30
C[C@]12CCC(=O)C=C1C=C[C@@H]1[C@@H]2CC[C@@]2(C)[C@H]1CC[C@@]21CCC(=O)O1 [CANRENONE] | – | – | – | – | – | – | – | – | – | – | – | – | – | > 30
O=NN(CCCl)C(=O)NCCCl [CARMUSTINE] | – | > 30 | > 30 | – | > 30 | – | – | > 30 | > 30 | > 30 | > 30 | – | > 30 | –
CN(C)CCC(O)(c1ccccc1)c1ccccc1Cl (centres undefined) [CHLOPHEDIANOL] | – | – | – | – | – | – | – | – | – | – | – | – | – | 3.4
C[C@]12C=CC(=O)C=C1C(Cl)=C[C@@H]1[C@@H]2[C@@H](O)C[C@@]2(C)[C@H]1CC[C@]2(O)C(=O)CO [CLOPREDNOL] | – | – | – | – | – | – | – | – | – | – | – | – | – | > 30
CC(=O)OCC(=O)[C@@]1(OC(C)=O)[C@@H](C)C[C@H]2[C@@H]3C[C@H](F)C4=CC(=O)C=C[C@]4(C)[C@@]3(F)[C@@H](O)C[C@@]21C [DIFLORASONE DIACETATE] | > 30 | > 30 | > 30 | > 30 | > 30 | > 30 | > 30 | > 30 | > 30 | > 30 | > 30 | > 30 | > 30 | > 30
C[C@]12CCC(=O)C=C1[C@@H]1C[C@@H]1[C@H]1[C@@H]3[C@@H]4C[C@@H]4[C@@]4(CCC(=O)O4)[C@@]3(C)CC[C@@H]12 [DROSPIRENONE] | – | – | – | – | – | – | – | – | – | – | – | – | – | > 30
COc1cccc2c1C(=O)c1c(O)c3c(c(O)c1C2=O)C[C@@](O)(C(=O)CO)C[C@@H]3O[C@H]1C[C@H](N)[C@@H](O)[C@H](C)O1 [EPIRUBICIN] | > 30 | > 30 | > 1 | > 30 | > 30 | > 30 | > 30 | > 30 | > 30 | > 30 | 17 | 8.17 | > 30 | –
CC(C)(Oc1ccc(Cl)cc1)C(=O)OCCOC(=O)c1cccnc1 [ETOFIBRATE] | – | – | – | – | – | – | – | – | – | – | – | – | – | > 30
CC1=C(/C=C/C(C)=C/C=C/C(C)=C\C(=O)O)C(C)(C)CCC1 [ISOTRETINOIN] | > 30 | > 30 | > 30 | – | > 30 | > 30 | > 30 | > 30 | > 30 | > 30 | > 30 | > 30 | > 30 | –
CCC(=O)c1ccc2c(c1)N(CC(C)N(C)C)c1ccccc1S2 (centres undefined) [PROPIOMAZINE] | – | – | – | – | – | – | – | – | – | – | – | – | – | 0.685
CN(C)[C@@H]1C(O)=C(C(=O)NCN2CCCC2)C(=O)[C@@]2(O)C(O)=C3C(=O)c4c(O)cccc4[C@@](C)(O)[C@H]3C[C@@H]12 [ROLITETRACYCLINE] | – | – | – | – | – | – | – | – | – | – | – | – | – | > 30
CC1(C)O[C@@H]2C[C@H]3[C@@H]4CCC5=CC(=O)C=C[C@]5(C)[C@@]4(F)[C@@H](O)C[C@]3(C)[C@]2(C(=O)CO)O1 [TRIAMCINOLONE ACETONIDE] | – | – | – | – | – | – | – | – | – | – | – | – | – | > 30
NS(=O)(=O)c1cc2c(cc1Cl)NC(C(Cl)Cl)NS2(=O)=O (centres undefined) [TRICHLORMETHIAZIDE] | > 30 | > 30 | > 30 | > 30 | > 30 | > 30 | > 30 | > 30 | > 30 | > 30 | > 30 | > 30 | > 30 | –
Oc1cc(Cl)ccc1Oc1ccc(Cl)cc1Cl [TRICLOSAN] | – | – | – | – | – | – | – | – | – | – | – | – | – | > 30
CC(CN(C)C)CN1c2ccccc2CCc2ccccc21 (centres undefined) [TRIMIPRAMINE] | > 30 | > 30 | – | > 30 | 10.9 | > 30 | > 30 | > 30 | 5.7 | 20.1 | > 30 | 9.64 | 0.0178 | 8.9

Source: ChEMBL document CHEMBL5291721, “A preclinical secondary pharmacology resource illuminates target-adverse drug reaction associations of marketed drugs” (Nat Commun, 2023)
